Assay results taken from patent US4600710A, “β-Adrenergic receptor agonist alkylaminoalkyl pyridinemethanol derivatives” (G. D. Searle & Co., priority 1985, dated 1986).
Structures can show the parent of a compound that is named as a salt.

Assays:
[1] = system: spontaneously hypertensive rats; assay: Intravenous dose-response studies in conscious spontaneously hypertensive rats; type: in vivo, rat; conditions: conscious SHR
Description: Six adult male spontaneously hypertensive rats were anesthetized with ether and instrumented with carotid artery and jugular vein catheters. The rats were allowed to recover from surgery and ether anesthesia for three to five hours. The test compound was administered intravenously in saline at doses of 0.1, 0.2, 0.7, 2, 7, and 20 mg/kg to give cumulative doses of 0.1, 0.3, 1, 3, 10, and 30 mg/kg. At the completion of these injections propranolol, a beta-adrenergic antagonist, was administered intravenously at a dose of 1 mg/kg and the injections of the test compound were repeated. The volume of each injection was 0.1 ml/100 grams of body weight. Mean arterial pressure and heart rate were measured via the carotid artery with a Statham pressure transducer and Gould physiological recorder. Results were analyzed using a paired t-test.

[2] = system: spontaneously hypertensive rats; assay: Oral dosing studies in conscious spontaneously hypertensive rats; type: in vivo, rat; conditions: conscious SHR, daily oral dosing 100 mg/kg for 3 days
Description: Ten adult male spontaneously hypertensive rats were anesthetized with sodium pentobarbital and instrumented with a carotid arterial catheter. On the following day each rat was tethered in a plastic cage and arterial blood pressure and heart rate were monitored via the arterial catheter continuously for 72 hours. Each rat was dosed intragastrically with 100 mg/kg of the test compound each day for three days. A vehicle treated group (saline) of 10 rats was tested simultaneously. Differences in blood pressure between the treated and vehicle group were analyzed by the Kraskal-Wallis and Wilcoxon rank sum tests.

[3] = system: spontaneously hypertensive rats; assay: Systemic hemodynamics in pentobarbital anesthetized spontaneously hypertensive rats; type: in vivo, rat
Description: Five adult male spontaneously hypertensive rats were anesthetized with sodium pentobarbital and instrumented with a femoral artery catheter for measuring arterial pressure and heart rate. The jugular vein was catheterized for injections and a thermocouple was placed in the aortic arch via the carotid artery for cardiac output measurement by the thermodilution technique. The trachea was cannulated and the rats breathed 100% oxygen. Control readings were taken and the test compound was injected in doses ranging from 0.1 to 30 mg/kg iv. After the 30 mg/kg dose, propranolol was injected iv at a dose of 1 mg/kg. Changes in hemodynamic parameters from control readings were analyzed by the paired t-test.

β-adrenergic receptor = biological target: T1, β-adrenergic receptor (Rattus norvegicus, UniProt P10608); assay: Beta-adrenergic receptor binding ([3H]DHA displacement, rat cerebellum plasma membranes); conditions: rat cerebellum cortex membranes, 1 nM [3H]DHA; read-out: IC50, inhibition of β-adrenergic receptor binding of tritiated dihydroalprenolol
T1 construct: Rat cerebellums were homogenized in 20 volumes of ice cold 50 mM Tris-HCl buffer; from tissue; host or cells: rat cerebellum (crude plasma membranes)
T1 sequence (P10608 whole entry): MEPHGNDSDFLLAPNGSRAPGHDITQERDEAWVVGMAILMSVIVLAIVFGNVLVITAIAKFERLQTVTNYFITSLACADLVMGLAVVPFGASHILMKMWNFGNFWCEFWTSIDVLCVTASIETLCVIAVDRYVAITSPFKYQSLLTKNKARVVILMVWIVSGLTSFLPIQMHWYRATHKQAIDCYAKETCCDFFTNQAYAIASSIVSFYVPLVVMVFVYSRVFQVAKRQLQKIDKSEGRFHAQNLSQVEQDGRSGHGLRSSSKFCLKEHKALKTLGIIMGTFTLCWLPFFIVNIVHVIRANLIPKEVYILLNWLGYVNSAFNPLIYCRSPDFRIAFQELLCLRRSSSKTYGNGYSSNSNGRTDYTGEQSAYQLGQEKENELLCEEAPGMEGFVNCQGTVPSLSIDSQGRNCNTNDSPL
Description: Tissue preparation: Rat cerebellum plasma membranes were prepared by the method of U'Prichard et al, (J. Biol. Chem., 253, No. 14, pp. 5090-5102, 1978). Rat cerebellums were homogenized in 20 volumes of ice cold 50 mM Tris-HCl buffer (pH 7.4) with a Tekmar homogenizer. Crude plasma membranes were obtained by centrifugation at 45,000× g for 15 min with an intermediate rehomogenization in fresh buffer. The final pellets were resuspended in ten volumes of 50 mM buffer with 0.25M sucrose.
Binding Assay: Rat cerebellum plasma membrane preparations (10 mg wet weight per ml in a volume of one ml) were incubated with 1 nM [^3 H] DHA in buffer, 1 mM catechol and 0.01% ascorbic acid, either in the presence or absence of various amounts of test substance at room temperature for 20 minutes. Bound and free radioligand were separated by addition of 3.5 ml buffer (0° C.) followed by rapid filtration through Whatman GF/B glass fiber filter. The filter was then washed rapidly with three 3.5 ml buffer (3X). Specific binding was defined as the amount of the [^3 H]DHA bound in the absence of competing ligand minus the amount bound in the presence of 10 uM (±) propranolol (nonspecific binding). […] IC50 (inhibitory concentration -50%) values were calculated from the displacement data after logit-log transformation with least squares linear regression.

SMILES: CC(C)NCC(O)c1cccnc1 (stereo not drawn) [Example 1B, oxalate salt]
- ED25 ([1]; Rattus norvegicus, iv, cumulative doses 0.1-30 mg/kg, read-out: calculated intravenous dose reducing mean arterial pressure by 25%): 37 mg/kg
- elevation of heart rate [2]: 114 beats/min
- time pressure remained reduced [2]: 6 to 10 h
- lowering of mean arterial pressure ([2]; at 3-4 hours after dosing): 39 mmHg
- total peripheral resistance after compound ([3]; pentobarbital anesthetized SHR, iv 0.1 to 30 mg/kg, decreased from control 3 units): 1.1 units
- cardiac output after compound ([3]; pentobarbital anesthetized SHR, iv 0.1 to 30 mg/kg, increased from control 72 ml/min): 92 mL/min
- IC50 (β-adrenergic receptor): 39 µM

SMILES: CC(C)NCC(O)COc1cccc2ccccc12 (stereo not drawn) [Propranolol, propranolol, reference compound]
- effect of propranolol on blood pressure and heart rate changes produced by the compound of the invention ([1]; propranolol 1 mg/kg iv): attenuated the hypertension and tachycardia
- effect of propranolol on hemodynamic effects (cardiac output, total peripheral resistance) of the compound of the invention ([3]; propranolol 1 mg/kg iv after the 30 mg/kg dose, anesthetized SHR): reversed these hemodynamic effects
